# Measured values from patent US8993575B2, “[1,3,4] oxadiazole derivative and application thereof” (Huazhong University of Science & Technology, priority 2011, dated 2015).
# Where two headings read alike, the source gives them in different places.
# Key:
# 5HT2A receptor = 5HT2A receptor (Rattus norvegicus (Rat), UniProt P14842); test: 5HT2A receptor assay ([3H]-Ketanserin, rat brain mantle membrane); format: binding; conditions: for inhibition at 10 µM: read-out: 5HT2A Inhibition %; for IC50: values marked a = IC50
# 5HT1A receptor = 5HT1A receptor (Rattus norvegicus (Rat), UniProt P19327); test: 5HT1A receptor binding assay (3H-8-OH-DPAT, rat brain mantle membrane); conditions: for inhibition at 10 µM: test compound final concentration 10^-5 M; for IC50: values marked a = IC50
# Description: Incubation at 37° C. was conducted for 10 min, the weight of the tubes were adjusted using a balance after incubation. […] Centrifugation was conducted and repeated 3 times.
# D2 receptor = D2 receptor (Rattus norvegicus (Rat), UniProt P61169); test: D2 receptor binding assay (3H-Spiperone, rat brain striatum membrane); conditions: read-out: D2 Inhibition %
# Description: Brain striatum was rapidly taken, and 2 brain striatums were combined into a centrifuge tube, to which 3 ml of buffer (0.05 M Tris-HCl buffer, containing NaCl 120 mM, KCl 5 mM, MgCl2 1 mM, CaCl2 1 mM) was added, homogenization was conducted for 3-4 s at level 4 for four times, and then 5 ml of buffer was then added. The weight of the homogenized tubes were adjusted using a balance, and centrifugation was conducted at 12000 r, 4° C. for 20 min. The supernatant was discarded, and 3 ml of buffer was added (0.05 M Tris-HCl buffer, containing NaCl 120 mM, KCl 5 mM, MgCl2 1 mM, CaCl2 1 mM). Vortex mixer was used for blending, and then 5 ml of buffer was added (0.05 M Tris-HCl buffer, containing NaCl 120 mM, KCl 5 mM, MgCl2 1 mM, CaCl2 1 mM). Centrifugation was conducted and repeated 3 times. After the centrifugations, the supernatant was discarded, and the pellets were stored at −80° C. for future use.
# Beckman LS-6500 Multi-function Liquid Scintillation Counter was used.
# (1) The prepared membrane was first applied with appropriate amount of buffer (0.05 M Tris-HCl buffer, containing NaCl 120 mM, KCl 5 mM, MgCl2 1 mM, CaCl2 1 mM), and homogenizer was used for evenly dispersing. 15 tubes were mixed into a 100 ml container, and appropriate amount of homogenized liquid was added to give 50 ml of membrane suspension, which was reserved for future use.
# (2) 100 μL of membrane preparation and 100 μL of buffer (0.05 M Tris-HCl buffer, containing NaCl 120 mM, KCl 5 mM, MgCl2 1 mM, CaCl2 1 mM) were added into each reaction tube.
# (3) 100 μL of homogenized liquid was added into the total binding tube (TB), 100 μL of Butaclamol (final concentration 10^−5 M) was added into the non-specific binding tube (NB), and 100 μL of the test compound (final concentration 10^−5 M) was added into the specific binding tube (SB) for each compound.
# (5) Each of the reaction tubes was incubated at 37° C. for 20 min. After the reaction was completed, the bound ligands were rapidly filtered under reduced pressure, and the ice-chilled assay buffer was used for adequate washing. The filter was taken out and put into a 3 ml scintillation vial, and 2 ml of toluene scintillation solution was added and blended.
# (6) The scintillation vials were put into Liquid Scintillation Counter for counting. Inhibitory rate(1%)=[(Total binding tube cpm−compound cpm)/(Total binding tube cpm−non-specific binding tube cpm)]×100%
# Each assay for the compounds was conducted in duplicate.
# 5HT2C = 5HT2C (Rattus norvegicus (Rat), UniProt P08909); test: 5HT2C receptor binding assay ([3H]-mesulergine, rat brain mantle membrane); conditions: test compound final concentration 10^-5 M
# Description: Incubation at 37° C. was conducted for 10 min, the weight of the tubes were adjusted using a balance after the incubation. […] Centrifugation was conducted (repeated 3 times).
# D3 receptor = D3 receptor (Homo sapiens (Human), UniProt P35462); test: D3 receptor binding assay ([3H]-Spiperone, HEK-293 cells); conditions: test compound final concentration 10 μmol/L
# Description: After the cells were centrifuged at 1000 rpm for 5 min, the supernatant was discarded, and the cell pellet was collected and stored in a −20° C. fridge for reservation. It was re-suspended with Tris-Cl (pH 7.4) in the assay.
# Tris was divided into aliquots by Genetimes Technology Inc.
# Competitive binding test for receptors: 20 μl of each of the test compounds and 20 μl of the radioactive ligand together with 160 μl of the receptor proteins were added into the reaction tubes, and the final concentrations of the test compound and the positive drug were all 10 μmol/L. After 50 min of incubation in 30° C. water bath, the tubes were immediately moved to ice bath to terminate the reactions. GF/C glass fiber filter papers were used for rapid sucking filtration on a Millipore cell sample collector, elution buffer (50 mM Tris-HCl, PH 7.4) was applied for 3 ml×3 times, and microwave was applied for 4-5 min for drying. The filter papers were moved into 0.5 ml centrifuge tubes, and 500 μl of lipid-soluble scintillation solution was added. The tubes were allowed to stand still for over 30 min in dark, and the intensities of radioactivity were measured by a counter.
# [1] = tested on: apomorphine induced clambering of mice; test: Apomorphine induced clambering assay of mice; conditions: for ED50: Mus musculus, po, read-out: apomorphine induced clambering ED50; for improvement of apomorphine induced clambering symptoms (in words): compared to the model group
# Description: Apomorphine provided by Sigma Company was dissolved in 0.9% NaCl (containing 0.1% vitamin C) before use, and was freshly formulated before use.
# Instruments: self-made clambering cage, chronograph.
# After 5 min of adaptation, the behaviors of the mice at 10-11, 20-21, 30-31 min after the injection of apomorphine were observed.
# [2] = tested on: MK-801 high activity mice; test: MK-801 induced high activity in mice; format: in vivo; conditions: for Total moving distance: MK-801 high activity mice, within 90 min; for ED50: Mus musculus, po, read-out: MK-801 induced high activity ED50; for improvement of MK-801 induced high activity (in words): compared to the model group
# Description: Ascorbic acid was provided by Sinopharm Chemical Reagent Co. Ltd.
# MK-801 was produced by Sigma Company, USA; the formulation method: 0.1% vitamin C was used to formulate a 1 mg/ml solution.
# Tween 80, with the concentration of 10%.
# Mice with qualified body weight were selected, and randomly divided into blank group, model group, positive control group (risperidone group) and drug group. […] 1 H after the administration, 0.1% of ascorbic acid was intraperitoneally injected to the blank group at 0.1 ml/10 g; and the model group, the positive control group (30 min) and the drug group were intraperitoneally injected the MK-801 solution at 0.1 mg/kg. Subsequently, the spontaneous activities of the mice of each group in 90 min were measured.
# KM mice (catalepsy) = test: Catalepsy assay in mice; format: in vivo; conditions: for catalepsy/MK-801 / catalepsy/apomorphine: ratio of ED50 values
# Description: (§1) The durations for the mice to maintain the posture with the two forepaws on the bars were recorded, and 30 s of spasticity without moving was considered as the positive response. In the case the forepaws of the mice were not put down persistently, the observation was terminated at 60 s. The numbers of animals with positive response in each of the compound dosage groups were counted.
# Catalepsy assay in mice = format: in vivo; conditions: both sexes, Kunming (KM), mouse, in vivo; po, mice
# Description: as §1
# in vivo = conditions: both sexes, mouse, in vivo, po
# Description: (§2) KM mice (half male and half female) were randomly divided into several groups (with 2-5 mice in each group), which were respectively the 2000 mg/kg groups for each compound, and the solvent group. 0.2 ml/10 g were administered intragastrically. The death of the animals in 3 days were observed. (In the case 3 or more animals survived in 3 days without notable abnormity in their life states, the observation was continued until the assay was completed in 7 days. In the case 3 or more animals died in 3 days, the median lethal dose method was used to determine the LD50).
# (§3) KM mice (half male and half female) were randomly divided into several groups (with 4 mice in each group), which were respectively the 1500 mg/kg, 1000 mg/kg, 500 mg/kg groups for each compound, and the solvent group. 0.2 ml/10 g were administered intragastrically, and the death of the animals in 1-3 days were observed.
# [3] = tested on: four receptors (D2, D3, 5-HT1A and 5-HT2A); test: In vitro receptor binding assays, summary over four receptors; conditions: in vitro assay
# KM mice = test: in vivo; conditions: po, single intragastric administration in mice
# Description: as §2, §3
# [4] = single intragastric administration in mice, read-out: LD50
# 5HT2C, sequence (P08909 33-460 limits assumed): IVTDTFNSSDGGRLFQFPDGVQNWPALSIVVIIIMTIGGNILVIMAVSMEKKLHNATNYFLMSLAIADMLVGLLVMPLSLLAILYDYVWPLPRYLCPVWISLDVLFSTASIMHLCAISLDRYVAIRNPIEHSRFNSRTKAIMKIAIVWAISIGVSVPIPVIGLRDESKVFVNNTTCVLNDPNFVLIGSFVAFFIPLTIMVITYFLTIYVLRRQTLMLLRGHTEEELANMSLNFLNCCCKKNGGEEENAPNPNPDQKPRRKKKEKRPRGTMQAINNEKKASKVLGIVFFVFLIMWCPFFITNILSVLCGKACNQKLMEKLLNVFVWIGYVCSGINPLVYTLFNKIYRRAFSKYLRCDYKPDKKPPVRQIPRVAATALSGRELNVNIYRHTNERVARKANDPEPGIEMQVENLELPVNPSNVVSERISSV
# D2 receptor, sequence (P61169 whole entry): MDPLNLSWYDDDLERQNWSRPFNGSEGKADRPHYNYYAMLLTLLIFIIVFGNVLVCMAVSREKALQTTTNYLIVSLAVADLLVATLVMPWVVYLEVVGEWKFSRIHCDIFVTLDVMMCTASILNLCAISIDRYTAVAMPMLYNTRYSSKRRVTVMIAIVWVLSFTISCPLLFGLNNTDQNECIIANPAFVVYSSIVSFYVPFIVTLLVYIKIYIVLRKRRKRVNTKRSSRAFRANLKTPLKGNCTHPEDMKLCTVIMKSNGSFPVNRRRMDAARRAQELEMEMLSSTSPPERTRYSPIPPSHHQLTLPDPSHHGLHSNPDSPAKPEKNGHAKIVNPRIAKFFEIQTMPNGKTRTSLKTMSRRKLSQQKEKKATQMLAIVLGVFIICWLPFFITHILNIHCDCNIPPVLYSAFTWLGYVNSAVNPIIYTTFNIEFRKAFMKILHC
# D3 receptor, sequence (P35462 whole entry): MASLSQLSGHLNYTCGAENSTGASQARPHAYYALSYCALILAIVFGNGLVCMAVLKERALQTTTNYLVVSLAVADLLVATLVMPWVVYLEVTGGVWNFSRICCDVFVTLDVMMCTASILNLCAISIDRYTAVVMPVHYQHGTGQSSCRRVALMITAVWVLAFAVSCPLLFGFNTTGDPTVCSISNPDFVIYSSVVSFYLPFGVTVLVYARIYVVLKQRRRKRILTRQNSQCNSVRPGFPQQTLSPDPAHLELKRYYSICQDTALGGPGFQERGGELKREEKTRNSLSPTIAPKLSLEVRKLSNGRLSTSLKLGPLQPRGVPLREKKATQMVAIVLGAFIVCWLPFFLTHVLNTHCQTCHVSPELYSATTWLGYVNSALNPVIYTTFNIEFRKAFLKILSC
# 5HT2A receptor, sequence (P14842 whole entry): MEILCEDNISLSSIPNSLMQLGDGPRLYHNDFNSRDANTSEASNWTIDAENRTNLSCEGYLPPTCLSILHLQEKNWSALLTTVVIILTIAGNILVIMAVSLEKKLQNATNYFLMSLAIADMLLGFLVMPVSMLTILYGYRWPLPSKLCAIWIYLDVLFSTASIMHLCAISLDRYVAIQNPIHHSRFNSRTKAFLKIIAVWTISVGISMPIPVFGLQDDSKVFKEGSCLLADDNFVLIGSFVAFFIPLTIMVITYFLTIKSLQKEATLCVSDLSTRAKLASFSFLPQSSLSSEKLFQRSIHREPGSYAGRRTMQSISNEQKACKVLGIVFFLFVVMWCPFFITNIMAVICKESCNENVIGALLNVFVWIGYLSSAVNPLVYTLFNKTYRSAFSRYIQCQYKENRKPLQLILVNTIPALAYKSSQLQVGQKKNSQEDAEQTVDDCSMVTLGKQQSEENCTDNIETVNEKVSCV
# 5HT1A receptor, sequence (P19327 whole entry): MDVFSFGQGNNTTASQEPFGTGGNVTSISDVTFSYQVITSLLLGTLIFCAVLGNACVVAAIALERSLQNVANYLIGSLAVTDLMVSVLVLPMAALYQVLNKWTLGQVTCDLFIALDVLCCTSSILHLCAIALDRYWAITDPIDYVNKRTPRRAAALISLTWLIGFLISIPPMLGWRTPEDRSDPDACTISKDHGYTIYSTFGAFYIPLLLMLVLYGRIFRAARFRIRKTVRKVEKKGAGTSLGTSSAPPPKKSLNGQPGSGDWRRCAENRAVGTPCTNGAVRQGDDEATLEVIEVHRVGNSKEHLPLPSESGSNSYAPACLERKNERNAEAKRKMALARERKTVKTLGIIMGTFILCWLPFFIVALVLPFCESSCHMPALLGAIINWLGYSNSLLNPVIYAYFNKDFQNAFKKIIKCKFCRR
smiles,measurement,setting,value
c1ccc(-c2nnc(SCCCN3CCN(c4nsc5ccccc45)CC3)o2)cc1 [Compound 1],inhibition at 10 µM,5HT2A receptor,87.1%
same,inhibition at 10 µM,5HT1A receptor,17.9%
same,inhibition at 10 µM,D2 receptor,62.4%
Fc1ccc2c(C3CCN(CCCSc4nnc(-c5ccccc5)o4)CC3)noc2c1 [Compound 2],inhibition at 10 µM,5HT2A receptor,11%
same,inhibition at 10 µM,5HT1A receptor,6.1%
same,inhibition at 10 µM,D2 receptor,77.5%
COc1ccc(-c2nnc(SCCCN3CCN(c4nsc5ccccc45)CC3)o2)cc1 [Compound 3],IC50,5HT2A receptor,2.27 nM
same,IC50,5HT1A receptor,8.82 nM
same,inhibition at 10 µM,5HT2C,98.5%
same,inhibition at 10 µM,D3 receptor,99.5%
same,inhibition at 10 µM,D2 receptor,108%
COc1ccc(-c2nnc(SCCCN3CCC(c4noc5cc(F)ccc45)CC3)o2)cc1 [Compound 4],ED50,[1],1.62 mg/kg
same,improvement of apomorphine induced clambering symptoms (in words),[1],effectively improve
same,IC50,5HT2A receptor,0.51 nM
same,Total moving distance,[2]; 3 mg/kg intragastric,24988.83 ± 7617.21 cm
same,Total moving distance,[2]; 5 mg/kg intragastric,22872.82 ± 10538.51 cm
same,Total moving distance,[2]; 10 mg/kg intragastric,13574.51 ± 5340.38 cm
same,Total moving distance,[2]; 30 mg/kg intragastric,7773.56 ± 3681.67 cm
same,Total moving distance,[2]; 100 mg/kg intragastric,6954.61 ± 4931.26 cm
same,ED50,[2]; mice,15.4 mg/kg
same,improvement of MK-801 induced high activity (in words),[2],significantly improve
same,IC50,5HT1A receptor,12.7 nM
same,inhibition at 10 µM,5HT2C,82.1%
same,EPS at effective dosage (in words),KM mice (catalepsy),did not cause EPS
same,catalepsy/MK-801,KM mice (catalepsy),41.56
same,catalepsy/apomorphine,KM mice (catalepsy),395.30
same,ED50,Catalepsy assay in mice,640 mg/kg
same,LD50,in vivo; [4],> 2000 mg/kg
same,inhibition at 10 µM,D3 receptor,101%
same,inhibition at 10 µM,D2 receptor,113%
Clc1ccc(-c2nnc(SCCCN3CCN(c4nsc5ccccc45)CC3)o2)cc1 [Compound 5],IC50,5HT2A receptor,62.5 nM
same,IC50,5HT1A receptor,26.9 nM
same,inhibition at 10 µM,5HT2C,56.5%
same,inhibition at 10 µM,D3 receptor,98.7%
same,inhibition at 10 µM,D2 receptor,92.7%
Fc1ccc2c(C3CCN(CCCSc4nnc(-c5ccc(Cl)cc5)o4)CC3)noc2c1 [Compound 6],ED50,[1],4.1 mg/kg
same,improvement of apomorphine induced clambering symptoms (in words),[1],effectively improve
same,IC50,5HT2A receptor,15.1 nM
same,Total moving distance,[2]; 3 mg/kg intragastric,20912.66 ± 9887.01 cm
same,Total moving distance,[2]; 5 mg/kg intragastric,15745.74 ± 5475.41 cm
same,Total moving distance,[2]; 10 mg/kg intragastric,12997.51 ± 7859.06 cm
same,Total moving distance,[2]; 20 mg/kg intragastric,6741.35 ± 2251.52 cm
same,Total moving distance,[2]; 30 mg/kg intragastric,8454.72 ± 7864.50 cm
same,ED50,[2]; mice,3.31 mg/kg
same,improvement of MK-801 induced high activity (in words),[2],significantly improve
same,IC50,5HT1A receptor,19.9 nM
same,inhibition at 10 µM,5HT2C,68.1%
same,EPS at effective dosage (in words),KM mice (catalepsy),did not cause EPS
same,catalepsy/MK-801,KM mice (catalepsy),28.02
same,catalepsy/apomorphine,KM mice (catalepsy),22.62
same,ED50,Catalepsy assay in mice,92.7 mg/kg
same,LD50,in vivo; [4],> 2000 mg/kg
same,inhibition at 10 µM,D3 receptor,101%
same,inhibition at 10 µM,D2 receptor,104%
"FC(F)(F)c1ccc(-c2nnc(SCCCN3CCN(c4nsc5ccccc45)CC3)o2)cc1 [Compound 7, 2-((3-(4-(3-benzisothiazole)-1-piperazinyl)propylthio)-5-(4-trifluoromethyl)phenyl)-1,3,4-oxadiazole]",inhibition at 10 µM,5HT2A receptor,98.8%
same,inhibition at 10 µM,5HT1A receptor,113%
same,inhibition at 10 µM,D2 receptor,80.6%
"Fc1ccc2c(C3CCN(CCCSc4nnc(-c5ccc(C(F)(F)F)cc5)o4)CC3)noc2c1 [Compound 8, 2-((3-(4-(3-(6-fluoro-benzisoxazole))-1-piperidyl)propylthio)-5-(4-trifluoromethyl)phenyl)-1,3,4-oxadiazole]",inhibition at 10 µM,5HT2A receptor,101%
same,inhibition at 10 µM,5HT1A receptor,20.8%
same,inhibition at 10 µM,D2 receptor,105%
"Fc1ccc(-c2nnc(SCCCN3CCN(c4nsc5ccccc45)CC3)o2)cc1 [Compound 9, 2-((3-(4-(3-benzisothiazole)-1-piperazinyl)propylthio)-5-(4-fluoro)phenyl)-1,3,4-oxadiazole]",inhibition at 10 µM,5HT2A receptor,103%
same,inhibition at 10 µM,5HT1A receptor,107%
same,inhibition at 10 µM,D2 receptor,84.8%
"Fc1ccc(-c2nnc(SCCCN3CCC(c4noc5cc(F)ccc45)CC3)o2)cc1 [Compound 10, 2-((3-(4-(3-(6-fluoro-benzisoxazole))-1-piperidyl)propylthio)-5-(4-fluoro)phenyl)-1,3,4-oxadiazole]",inhibition at 10 µM,5HT2A receptor,117%
same,inhibition at 10 µM,5HT1A receptor,56.4%
same,inhibition at 10 µM,D2 receptor,88.6%
c1ccc2c(-c3nnc(SCCCN4CCN(c5nsc6ccccc56)CC4)o3)cccc2c1 [Compound 11],inhibition at 10 µM,5HT2A receptor,91%
same,inhibition at 10 µM,5HT1A receptor,45.8%
same,"affinities to D2, D3, 5-HT1A and 5-HT2A receptors (in words)",[3],relatively stronger affinities
same,affinity compared to aripiprazole (in words),[3],equivalent to aripiprazole
same,inhibition at 10 µM,D2 receptor,25.7%
Fc1ccc2c(C3CCN(CCCSc4nnc(-c5cccc6ccccc56)o4)CC3)noc2c1 [Compound 12],ED50,[1],4.03 mg/kg
same,improvement of apomorphine induced clambering symptoms (in words),[1],effectively improve
same,IC50,5HT2A receptor,122 nM
same,Total moving distance,[2]; 10 mg/kg intragastric,20521.27 ± 7898.02 cm
same,Total moving distance,[2]; 20 mg/kg intragastric,12936.50 ± 3627.24 cm
same,Total moving distance,[2]; 30 mg/kg intragastric,16163.49 ± 7769.48 cm
same,Total moving distance,[2]; 50 mg/kg intragastric,10298.82 ± 4269.95 cm
same,Total moving distance,[2]; 100 mg/kg intragastric,5665.86 ± 1799.20 cm
same,ED50,[2]; mice,15 mg/kg
same,improvement of MK-801 induced high activity (in words),[2],significantly improve
same,IC50,5HT1A receptor,175 nM
same,inhibition at 10 µM,5HT2C,60.6%
same,EPS at effective dosage (in words),KM mice (catalepsy),did not cause EPS
same,catalepsy/MK-801,KM mice (catalepsy),20.00
same,catalepsy/apomorphine,KM mice (catalepsy),74.44
same,ED50,Catalepsy assay in mice,300 mg/kg
same,LD50,in vivo; [4],> 2000 mg/kg
same,"affinities to D2, D3, 5-HT1A and 5-HT2A receptors (in words)",[3],relatively stronger affinities
same,affinity compared to aripiprazole (in words),[3],equivalent to aripiprazole
same,inhibition at 10 µM,D3 receptor,100%
same,inhibition at 10 µM,D2 receptor,98.4%
c1csc(-c2nnc(SCCCN3CCN(c4nsc5ccccc45)CC3)o2)c1 [Compound 13],inhibition at 10 µM,5HT2A receptor,101%
same,inhibition at 10 µM,5HT1A receptor,95.9%
same,inhibition at 10 µM,D2 receptor,47.8%
c1ccc2c(N3CCN(CCCSc4nnc(-c5ccncc5)o4)CC3)nsc2c1 [Compound 15],inhibition at 10 µM,5HT2A receptor,95.1%
same,inhibition at 10 µM,5HT1A receptor,114%
same,inhibition at 10 µM,D2 receptor,88.1%
Fc1ccc2c(C3CCN(CCCSc4nnc(-c5ccncc5)o4)CC3)noc2c1 [Compound 16],inhibition at 10 µM,5HT2A receptor,107%
same,inhibition at 10 µM,5HT1A receptor,86.7%
same,inhibition at 10 µM,D2 receptor,45.9%
O=C1CCc2ccc(OCCCCN3CCN(c4cccc(Cl)c4Cl)CC3)cc2N1 [aripiprazole],LD50,in vivo; KM,1400 mg/kg
"Cc1nc2n(c(=O)c1CCN1CCC(c3noc4cc(F)ccc34)CC1)CCCC2 [risperidone, reference compound]",ED50,[1],0.02 mg/kg
same,improvement of apomorphine induced clambering symptoms (in words),[1],effectively improve
same,ED50,[2],0.01 mg/kg
same,improvement of MK-801 induced high activity (in words),[2],significantly improve
same,LD50,in vivo; [4],82.1 mg/kg
same,LD50,KM mice,82.1 mg/kg
O=C1Cc2cc(CCN3CCN(c4nsc5ccccc45)CC3)c(Cl)cc2N1 [ziprasidone],LD50,in vivo; [4],2000 mg/kg
